In PubChem BioAssay (NCI):
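Interpolation was linear, between the two tested concentrations surrounding the appropriate level; five concentrations were tested over 48 hours in 96-well plates. GI50 is the concentration that inhibits growth by half. TGI: total growth inhibition.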

Legend:
Assay in all cases: NCI tumour cell line growth inhibition, 48 h
[1] = tested on: SK-MEL-28 melanoma
[2] = tested on: MDA-MB-435
[3] = tested on: SK-MEL-2 melanoma
[4] = tested on: ACHN renal
[5] = tested on: HOP-62 NSCLC
[6] = tested on: HT29 colon
[7] = tested on: SK-OV-3 ovarian
[8] = tested on: SW-620 colon
[9] = tested on: UACC-257 melanoma
[10] = tested on: NCI-H460 lung
[11] = tested on: BT-549 breast
[12] = tested on: RXF 393 renal
[13] = tested on: OVCAR-4 ovarian
[14] = tested on: A549 NSCLC
[15] = tested on: OVCAR-3 ovarian
[16] = tested on: PC-3 prostate
[17] = tested on: NCI-H226 lung
[18] = tested on: NCI-H23 lung
[19] = tested on: U251 CNS
[20] = tested on: UO-31 renal
[21] = tested on: OVCAR-5 ovarian
[22] = tested on: LOX IMVI melanoma
[23] = tested on: HS 578T breast
[24] = tested on: RPMI-8226 leukemia
[25] = tested on: HCC-2998 colon
[26] = tested on: UACC-62 melanoma
[27] = tested on: MCF7 breast
[28] = tested on: 786-0 renal
[29] = tested on: HOP-92 NSCLC
[30] = tested on: CCRF-CEM leukemia
[31] = tested on: SF-295 CNS
[32] = tested on: SNB-75 CNS
[33] = tested on: SN12C renal
[34] = tested on: HCT-15 colon
[35] = tested on: SNB-19 CNS
[36] = tested on: DU-145 prostate
[37] = tested on: MOLT-4 leukemia
[38] = tested on: IGROV1 ovarian
[39] = tested on: HCT-116 colon
[40] = tested on: EKVX NSCLC
[41] = tested on: NCI-H522 lung
[42] = tested on: MDA-MB-231 breast
[43] = tested on: SF-268 CNS
[44] = tested on: K-562 leukemia
[45] = tested on: NCI/ADR-RES ovarian
[46] = tested on: T-47D breast
[47] = tested on: CAKI-1 renal
[48] = tested on: SK-MEL-5 melanoma
[49] = tested on: KM12 colon
[50] = tested on: SF-539 CNS
[51] = tested on: OVCAR-8 ovarian
[52] = tested on: TK-10 renal
[53] = tested on: COLO 205 colon
[54] = tested on: M14 melanoma

Structure (SMILES): O=C(Nc1ccccc1)NS(=O)(=O)c1ccc(N2N=C3c4ccccc4CC3C2c2ccccn2)cc1 (stereo not drawn)
- GI50 [1]: 71.5 µM
- TGI [1]: > 100 µM
- GI50 [2]: 21.4 µM
- TGI [2]: 54 µM
- GI50 [3]: 35.6 µM
- TGI [3]: > 100 µM
- GI50 [4]: 23.6 µM
- TGI [4]: 68.8 µM
- GI50 [5]: 20.4 µM
- TGI [5]: 45.5 µM
- GI50 [6]: 37.9 µM
- TGI [6]: > 100 µM
- GI50 [7]: > 100 µM
- TGI [7]: > 100 µM
- GI50 [8]: 34 µM
- TGI [8]: > 100 µM
- GI50 [9]: 26.6 µM
- TGI [9]: 76.6 µM
- GI50 [10]: 38.5 µM
- TGI [10]: > 100 µM
- GI50 [11]: 30.6 µM
- TGI [11]: > 100 µM
- GI50 [12]: 45.3 µM
- TGI [12]: > 100 µM
- GI50 [13]: > 100 µM
- TGI [13]: > 100 µM
- GI50 [14]: 29.2 µM
- TGI [14]: > 100 µM
- GI50 [15]: 21.6 µM
- TGI [15]: 74.4 µM
- GI50 [16]: 36.6 µM
- TGI [16]: > 100 µM
- GI50 [17]: 23.7 µM
- TGI [17]: 75.3 µM
- GI50 [18]: 20.8 µM
- TGI [18]: 52.2 µM
- GI50 [19]: 31.9 µM
- TGI [19]: > 100 µM
- GI50 [20]: 48.8 µM
- TGI [20]: > 100 µM
- GI50 [21]: 26.8 µM
- TGI [21]: 97.9 µM
- GI50 [22]: 15.4 µM
- TGI [22]: 34.2 µM
- GI50 [23]: 40.7 µM
- TGI [23]: > 100 µM
- GI50 [24]: 27.1 µM
- TGI [24]: > 100 µM
- GI50 [25]: 17.3 µM
- TGI [25]: 33.3 µM
- GI50 [26]: 17.8 µM
- TGI [26]: 37.2 µM
- GI50 [27]: 27 µM
- TGI [27]: > 100 µM
- GI50 [28]: 35.5 µM
- TGI [28]: > 100 µM
- GI50 [29]: 74.9 µM
- TGI [29]: > 100 µM
- GI50 [30]: 40.9 µM
- TGI [30]: > 100 µM
- GI50 [31]: 20.6 µM
- TGI [31]: 50 µM
- GI50 [32]: > 100 µM
- TGI [32]: > 100 µM
- GI50 [33]: 30.4 µM
- TGI [33]: > 100 µM
- GI50 [34]: 23.1 µM
- TGI [34]: > 100 µM
- GI50 [35]: 83.9 µM
- TGI [35]: > 100 µM
- GI50 [36]: 36.2 µM
- TGI [36]: > 100 µM
- GI50 [37]: 11.6 µM
- TGI [37]: > 100 µM
- GI50 [38]: 16.2 µM
- TGI [38]: 80.5 µM
- GI50 [39]: 15.3 µM
- TGI [39]: 29.1 µM
- GI50 [40]: 27.8 µM
- TGI [40]: > 100 µM
- GI50 [41]: 17.7 µM
- TGI [41]: 58.3 µM
- GI50 [42]: 19.8 µM
- TGI [42]: 60.8 µM
- GI50 [43]: 62.1 µM
- TGI [43]: > 100 µM
- GI50 [44]: 26.7 µM
- TGI [44]: 65.6 µM
- GI50 [45]: 64.4 µM
- TGI [45]: > 100 µM
- GI50 [46]: 93 µM
- TGI [46]: > 100 µM
- GI50 [47]: 26.4 µM
- TGI [47]: 90.2 µM
- GI50 [48]: 23.6 µM
- TGI [48]: 47 µM
- GI50 [49]: 24.8 µM
- TGI [49]: 88.7 µM
- GI50 [50]: 30.6 µM
- TGI [50]: 75.7 µM
- GI50 [51]: 27 µM
- TGI [51]: 92.3 µM
- GI50 [52]: 11.7 µM
- TGI [52]: 45.6 µM
- GI50 [53]: 31.1 µM
- TGI [53]: > 100 µM
- GI50 [54]: 24.9 µM
- TGI [54]: 51.4 µM
